Measured values reported in article PMC7048932, “Examining sterically demanding lysine analogs for histone lysine methyltransferase catalysis” (Scientific Reports, 2020).
Entries after “also recorded” stand apart in the source; their conditions may differ.

Assays:
[1] = system: SETD7; experiment: MALDI-TOF MS methylation assay of H3K4 peptides with SETD7; type: biochemical, human; conditions: peptide 100 µM, SETD7 2 µM, SAM 200 µM, 1 h, 37 °C
Procedure: (§1) MALDI-MS methyltransferases activity experiments were performed using a Bruker instrument in the reflectron positive mode. For regular methyltransferase standard conditions experiment which carried out in 30 µL total volume, the mixture contains peptide (100 µM), SAM (200 µM), SETD8 or SETD7 (2 µM), in assay buffer 50 mM Tris at optimal pH 8.0. In case of G9a and GLP, similar conditions were used, except (500 µM) of SAM was added to the reaction mixture. Samples were incubated in an Eppendorf vial 1.5 mL using thermomixer for 1 h at 37 °C. A 5 µL aliquot of the solution was mixed with 5 µL of MeOH, after which 5 µL of this mixture was mixed with 5 µL of α-cyano-4-hydroxycinamic acid matrix (CHCA, 5 mg/mL in 125:125 µL acetonitrile/water). The spots were placed on a stainless steel MALDI plate (MS 96 target ground steel BC of Bruker, Germany). The mass corresponding to one monomethylation observed as +14 Da, dimethylation observed as +28 Da and trimethylation observed as +42 Da. The enzymatic activity was determined by taking the peak areas of each methylation state, including all isotopes and adducts, and was annotated using FlexAnalysis software (Bruker Daltonics, Germany). […] Methylated peptide substrates were repeated five times and the unmethylated substrates were triplicated. Sequences of the examined peptides are given in (Supplementary Table 1).

[2] = biological target: T1, GLP (Homo sapiens, UniProt Q9H9B1); experiment: NMR assay of GLP-catalyzed methylation of H3K9 peptides; type: biochemical; conditions: peptide 400 µM, GLP 8 µM, SAM 2 mM, 50 mM Tris-d11.HCl pD 8.0, 1 h, 37 °C
T1 construct: His6 (N); made in house; host or cells: E. coli BL21 (DE3)pLysS-rosetta
T1 sequence (Q9H9B1 1-1298): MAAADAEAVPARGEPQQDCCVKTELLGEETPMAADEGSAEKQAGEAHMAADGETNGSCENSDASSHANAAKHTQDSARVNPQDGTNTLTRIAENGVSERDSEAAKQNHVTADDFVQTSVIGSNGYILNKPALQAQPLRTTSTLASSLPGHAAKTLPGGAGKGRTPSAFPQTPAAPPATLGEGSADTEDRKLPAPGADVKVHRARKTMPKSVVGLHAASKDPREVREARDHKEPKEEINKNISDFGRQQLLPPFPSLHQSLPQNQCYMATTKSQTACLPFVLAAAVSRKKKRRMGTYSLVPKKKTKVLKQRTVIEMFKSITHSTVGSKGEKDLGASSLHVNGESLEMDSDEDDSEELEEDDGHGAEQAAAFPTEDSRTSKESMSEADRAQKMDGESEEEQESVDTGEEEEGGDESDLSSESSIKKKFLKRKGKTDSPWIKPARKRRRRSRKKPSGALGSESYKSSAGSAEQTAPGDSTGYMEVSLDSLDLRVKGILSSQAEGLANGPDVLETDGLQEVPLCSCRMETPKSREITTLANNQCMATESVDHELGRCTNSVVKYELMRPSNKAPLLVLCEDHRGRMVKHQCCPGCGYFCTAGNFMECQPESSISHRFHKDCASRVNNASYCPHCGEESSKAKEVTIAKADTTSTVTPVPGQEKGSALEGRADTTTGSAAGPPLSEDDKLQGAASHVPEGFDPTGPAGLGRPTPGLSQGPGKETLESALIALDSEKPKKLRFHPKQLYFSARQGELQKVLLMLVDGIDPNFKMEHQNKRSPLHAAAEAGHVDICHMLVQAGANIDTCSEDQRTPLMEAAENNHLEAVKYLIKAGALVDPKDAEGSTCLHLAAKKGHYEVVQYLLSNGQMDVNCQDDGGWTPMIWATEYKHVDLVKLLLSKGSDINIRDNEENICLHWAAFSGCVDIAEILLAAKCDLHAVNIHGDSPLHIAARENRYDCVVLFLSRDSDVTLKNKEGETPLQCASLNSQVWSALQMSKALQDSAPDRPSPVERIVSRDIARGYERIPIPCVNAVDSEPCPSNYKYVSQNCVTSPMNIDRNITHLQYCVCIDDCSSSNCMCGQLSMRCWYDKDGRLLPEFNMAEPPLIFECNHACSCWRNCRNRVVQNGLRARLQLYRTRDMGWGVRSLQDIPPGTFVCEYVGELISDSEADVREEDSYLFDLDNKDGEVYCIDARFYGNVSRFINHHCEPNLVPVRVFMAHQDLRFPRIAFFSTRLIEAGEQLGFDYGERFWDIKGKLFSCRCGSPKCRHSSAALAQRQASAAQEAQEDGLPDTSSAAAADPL

[3] = biological target: T2, G9a (Homo sapiens, UniProt Q96KQ7); experiment: MALDI-TOF MS methylation assay of H3K9 peptides with G9a; type: biochemical; conditions: peptide 100 µM, G9a 2 µM, SAM 500 µM, 1 h, 37 °C
T2 construct: His6 (N); made in house; host or cells: E. coli BL21 (DE3)pLysS-rosetta
T2 sequence (Q96KQ7 1-1210): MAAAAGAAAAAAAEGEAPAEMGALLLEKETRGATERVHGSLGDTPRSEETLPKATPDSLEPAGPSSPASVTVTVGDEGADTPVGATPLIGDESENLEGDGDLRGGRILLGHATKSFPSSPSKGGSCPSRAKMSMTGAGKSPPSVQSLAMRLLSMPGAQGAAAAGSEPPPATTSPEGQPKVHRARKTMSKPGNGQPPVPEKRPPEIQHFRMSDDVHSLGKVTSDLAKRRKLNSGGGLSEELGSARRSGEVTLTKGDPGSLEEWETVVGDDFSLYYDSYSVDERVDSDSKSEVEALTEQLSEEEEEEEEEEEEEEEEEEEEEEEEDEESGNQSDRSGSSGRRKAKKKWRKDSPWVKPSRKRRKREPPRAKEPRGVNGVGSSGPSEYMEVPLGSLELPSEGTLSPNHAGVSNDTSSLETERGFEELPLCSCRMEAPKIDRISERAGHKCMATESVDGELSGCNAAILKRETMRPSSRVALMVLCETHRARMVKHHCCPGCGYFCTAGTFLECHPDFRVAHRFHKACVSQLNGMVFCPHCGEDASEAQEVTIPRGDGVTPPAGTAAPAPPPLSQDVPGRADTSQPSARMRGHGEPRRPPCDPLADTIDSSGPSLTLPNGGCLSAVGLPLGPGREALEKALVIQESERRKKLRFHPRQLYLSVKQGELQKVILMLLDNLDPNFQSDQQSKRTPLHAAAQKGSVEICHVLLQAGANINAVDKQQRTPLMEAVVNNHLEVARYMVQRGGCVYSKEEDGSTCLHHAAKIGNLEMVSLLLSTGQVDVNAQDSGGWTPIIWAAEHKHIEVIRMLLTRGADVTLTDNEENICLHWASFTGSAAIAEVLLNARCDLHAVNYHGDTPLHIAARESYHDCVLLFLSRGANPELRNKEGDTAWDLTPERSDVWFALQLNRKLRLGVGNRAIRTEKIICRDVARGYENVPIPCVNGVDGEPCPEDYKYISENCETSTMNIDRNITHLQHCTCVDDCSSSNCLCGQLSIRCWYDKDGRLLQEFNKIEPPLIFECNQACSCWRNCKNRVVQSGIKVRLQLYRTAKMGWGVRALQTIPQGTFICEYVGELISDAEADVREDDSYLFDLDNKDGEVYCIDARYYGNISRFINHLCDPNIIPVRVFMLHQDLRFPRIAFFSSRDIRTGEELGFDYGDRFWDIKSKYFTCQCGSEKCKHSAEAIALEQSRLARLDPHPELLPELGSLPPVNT
Procedure: as §1

[4] = biological target: T1, GLP; experiment: MALDI-TOF MS methylation assay of H3K9 peptides with GLP; type: biochemical; conditions: peptide 100 µM, GLP 10 µM, SAM 1 mM, 5 h, 37 °C, MALDI-MS
Procedure: as §1, with “Samples were incubated in an Eppendorf vial 1.5 mL using thermomixer for 1 h at 37 °C.” left out

[5] = biological target: T3, SETD8 (Homo sapiens, UniProt Q9NQR1); experiment: MALDI-TOF MS methylation assay of H4K20 peptides with SETD8; type: biochemical; conditions: peptide 100 µM, SETD8 10 µM, SAM 1 mM, 1 h and 5 h, 37 °C, MALDI-MS
T3 construct: His6 (N); made in house; host or cells: E. coli BL21 (DE3)pLysS-rosetta
T3 sequence (Q9NQR1 1-393): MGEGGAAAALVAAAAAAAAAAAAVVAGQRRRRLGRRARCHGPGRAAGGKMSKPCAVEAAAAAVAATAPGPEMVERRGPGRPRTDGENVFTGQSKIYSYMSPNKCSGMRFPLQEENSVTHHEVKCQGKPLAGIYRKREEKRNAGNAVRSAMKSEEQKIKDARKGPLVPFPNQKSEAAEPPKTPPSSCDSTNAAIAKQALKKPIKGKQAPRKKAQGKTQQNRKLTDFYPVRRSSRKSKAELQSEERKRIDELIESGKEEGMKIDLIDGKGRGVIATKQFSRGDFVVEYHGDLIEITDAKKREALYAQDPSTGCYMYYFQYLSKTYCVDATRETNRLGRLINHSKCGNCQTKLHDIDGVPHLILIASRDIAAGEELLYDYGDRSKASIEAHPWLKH
Procedure: as §1, with “For regular methyltransferase standard conditions experiment which carried out in 30 µL total volume, the mixture contains peptide (100 µM), SAM (200 µM), SETD8 or SETD7 (2 µM), in assay buffer 50 mM Tris at optimal pH 8.0.” left out

| Substance | G9a-catalyzed methylation, result in words [3] | SETD8-catalyzed methylation, result in words, increased SETD8/SAM and prolonged incubation [5] | SETD7-catalyzed methylation, result in words [1] | further results |
| --- | --- | --- | --- | --- |
| ART(Ap4)QTARKSTGGKA [H3AP4, H3K4 peptide bearing pyridylalanine at position 4] | – | – | lack of methylation | – |
| ARTKQTAR(Y9)STGGKA (ARTKQTARYSTGGKA) [H3Y9] | lack of methylation | – | – | GLP-catalyzed methylation by 1H NMR / 1H-13C HSQC, result in words [2]: not methylated; GLP-catalyzed methylation, result in words, increased GLP/SAM [4]: lack of methylation |
| ARTK^4QTARKSTGGKA [H3K4, reference compound] | – | – | formation of monomethylated H3K4; also recorded: monomethylation | – |
| ART(F3a4)QTARKSTGGKA [H3F3a4, H3K4 peptide bearing meta-aminophenylalanine at position 4] | – | – | lack of methylation | – |
| ARTKQTAR(F4a9)STGGKA [H3F4a9] | lack of methylation | – | – | GLP-catalyzed methylation by 1H NMR / 1H-13C HSQC, result in words [2]: not methylated; GLP-catalyzed methylation, result in words, increased GLP/SAM [4]: lack of methylation |
| ART(Kba4)QTARKSTGGKA [H3Kba4, H3K4 peptide bearing benzylamine lysine analog at position 4] | – | – | lack of methylation | – |
| ARTKQTAR(Ap9)STGGKA [H3AP9] | lack of methylation | – | – | GLP-catalyzed methylation by 1H NMR / 1H-13C HSQC, result in words [2]: not methylated; GLP-catalyzed methylation, result in words, increased GLP/SAM [4]: lack of methylation |
| ART(Y4)QTARKSTGGKA [H3Y4, H3K4 peptide bearing tyrosine at position 4] | – | – | lack of methylation | – |
| ARTKQTARKSTGGK [H3 1-14K9, reference compound] | trimethylation | – | – | – |

Second part, led by results:

| G9a-catalyzed methylation, result in words [3] | SETD8-catalyzed methylation, result in words, increased SETD8/SAM and prolonged incubation [5] | Substance | SETD7-catalyzed methylation, result in words [1] | further results |
| --- | --- | --- | --- | --- |
| – | lack of methylation | GGAKRHR(Ap20)VLRDNIQ [H4AP20, H4K20 peptide bearing pyridylalanine at position 20] | – | – |
| – | lack of methylation | GGAKRHR(F4a20)VLRDNIQ [H4F4a20, H4K20 peptide bearing para-aminophenylalanine at position 20] | – | – |
| – | lack of methylation | GGAKRHR(F3a20)VLRDNIQ [H4F3a20, H4K20 peptide bearing meta-aminophenylalanine at position 20] | – | – |
| – | lack of methylation | GGAKRHR(Y20)VLRDNIQ [H4Y20, H4K20 peptide bearing tyrosine at position 20] | – | – |
